In patent publication US10757941B2, “Microbiocidal oxadiazole derivatives” (SYNGENTA PARTICIPATIONS AG, priority 2016, dated 2020):

Tests used:
Phakopsora pachyrhizi = assay: Fungicidal activity against Phakopsora pachyrhizi / soybean / leaf disc preventative (Asian soybean rust); type: in vivo; conditions: foliar, 200 ppm in the applied formulation, soybean leaf disks, preventative (inoculated one day after application), assessed 12 to 14 days after application, compared to untreated, read-out: disease control
Experimental: Leaf disks or leaf segments of various plant species are cut from plants grown in a greenhouse. The cut leaf disks or segments are placed in multiwell plates (24-well format) onto water agar. The leaf disks are sprayed with a test solution before (preventative) or after (curative) inoculation. Compounds to be tested are prepared as DMSO solutions (max. 10 mg/ml) which are diluted to the appropriate concentration with 0.025% Tween20 just before spraying. The inoculated leaf disks or segments are incubated under defined conditions (temperature, relative humidity, light, etc.) according to the respective test system. A single evaluation of disease level is carried out 3 to 14 days after inoculation, depending on the pathosystem. Percent disease control relative to the untreated check leaf disks or segments is then calculated. Example 3: Fungicidal Activity Against Phakopsora pachyrhizi/Soybean/Leaf Disc Preventative (Asian Soybean Rust) Soybean leaf disks are placed on water agar in multiwell plates (24-well format) and sprayed with the formulated test compound diluted in water. One day after application leaf discs are inoculated by spraying a spore suspension on the lower leaf surface. After an incubation period in a climate cabinet of 24-36 hours in darkness at 20° C. and 75% rh leaf disc are kept at 20° C. with 12 h light/day and 75% rh. The activity of a compound is assessed as percent disease control compared to untreated when an appropriate level of disease damage appears in untreated check leaf disks (12 to 14 days after application). The following compounds at 200 ppm in the applied formulation give at least 80% disease control in this test when compared to untreated control leaf disks under the same conditions, which show extensive disease development.

[1] = test system: Glomerella lagenarium (Colletotrichum lagenarium); assay: Fungicidal activity against Glomerella lagenarium (Colletotrichum lagenarium) liquid culture / cucumber / preventative (anthracnose); type: cell-based; conditions: Colletotrichum orbiculare; 20 ppm in the applied formulation; liquid culture in PDB, 24° C.; inhibition of growth measured photometrically 3 to 4 days after application; compared to untreated; read-out: disease control
Experimental: Mycelia fragments or conidia suspensions of a fungus prepared either freshly from liquid cultures of the fungus or from cryogenic storage, are directly mixed into nutrient broth. DMSO solutions of the test compound (max. 10 mg/ml) are diluted with 0.025% Tween20 by a factor of 50 and 10 μl of this solution is pipetted into a microtiter plate (96-well format). The nutrient broth containing the fungal spores/mycelia fragments is then added to give an end concentration of the tested compound. The test plates are incubated in the dark at 24° C. and 96% relative humidity. The inhibition of fungal growth is determined photometrically after 2 to 7 days, depending on the pathosystem, and percent antifungal activity relative to the untreated check is calculated. Example 4: Fungicidal Activity Against Glomerella lagenarium (Colletotrichum lagenarium) Liquid Culture/Cucumber/Preventative (Anthracnose) Conidia of the fungus from cryogenic storage are directly mixed into nutrient broth (PDB—potato dextrose broth). After placing a (DMSO) solution of test compound into a microtiter plate (96-well format), the nutrient broth containing the fungal spores is added. The test plates are incubated at 24° C. and the inhibition of growth is measured photometrically 3 to 4 days after application. The following compounds at 20 ppm in the applied formulation give at least 80% disease control in this test when compared to untreated control under the same conditions, which show extensive disease development.

[2] = test system: Puccinia recondita f. Sp. Tritici; assay: Fungicidal activity against Puccinia recondita f. sp. tritici / wheat / leaf disc curative (brown rust); type: in vivo; conditions: foliar, 200 ppm in the applied formulation, wheat leaf segments cv. Kanzler, curative (applied 1 day after inoculation), assessed 6 to 8 days after application, compared to untreated, read-out: disease control
Experimental: Leaf disks or leaf segments of various plant species are cut from plants grown in a greenhouse. The cut leaf disks or segments are placed in multiwell plates (24-well format) onto water agar. The leaf disks are sprayed with a test solution before (preventative) or after (curative) inoculation. Compounds to be tested are prepared as DMSO solutions (max. 10 mg/ml) which are diluted to the appropriate concentration with 0.025% Tween20 just before spraying. The inoculated leaf disks or segments are incubated under defined conditions (temperature, relative humidity, light, etc.) according to the respective test system. A single evaluation of disease level is carried out 3 to 14 days after inoculation, depending on the pathosystem. Percent disease control relative to the untreated check leaf disks or segments is then calculated. Example 2: Fungicidal Activity Against Puccinia recondita f. Sp. Tritici/Wheat/Leaf Disc Curative (Brown Rust) Wheat leaf segments cv. Kanzler are placed on agar in multiwell plates (24-well format). The leaf segments are then inoculated with a spore suspension of the fungus. Plates were stored in darkness at 19° C. and 75% relative humidity. The formulated test compound diluted in water was applied 1 day after inoculation. The leaf segments were incubated at 19° C. and 75% relative humidity under a light regime of 12 hours light/12 hours darkness in a climate cabinet and the activity of a compound was assessed as percent disease control compared to untreated when an appropriate level of disease damage appears in untreated check leaf segments (6 to 8 days after application). The following compounds at 200 ppm in the applied formulation give at least 80% disease control in this test when compared to untreated control leaf disks under the same conditions, which show extensive disease development.

Uromyces viciae-fabael = assay: Fungicidal activity against Uromyces viciae-fabae / field bean / leaf disc preventative (faba-bean rust); type: in vivo; conditions: foliar, 288 h, 100 ppm in the applied formulation, field bean leaf discs, preventative (inoculated two hours after application), assessed 12 days after application, compared to untreated, read-out: disease control
Experimental: Leaf disks or leaf segments of various plant species are cut from plants grown in a greenhouse. The cut leaf disks or segments are placed in multiwell plates (24-well format) onto water agar. The leaf disks are sprayed with a test solution before (preventative) or after (curative) inoculation. Compounds to be tested are prepared as DMSO solutions (max. 10 mg/ml) which are diluted to the appropriate concentration with 0.025% Tween20 just before spraying. The inoculated leaf disks or segments are incubated under defined conditions (temperature, relative humidity, light, etc.) according to the respective test system. A single evaluation of disease level is carried out 3 to 14 days after inoculation, depending on the pathosystem. Percent disease control relative to the untreated check leaf disks or segments is then calculated. Example 5: Fungicidal Activity Against Uromyces viciae-fabael Field Bean/Leaf Disc Preventative (Faba-Bean Rust) Field bean leaf discs are placed on water agar in multiwell plates (96-well format) and 10 μl of the formulated test compound diluted in acetone and a spreader pipetted onto the leaf disc. Two hours after application leaf discs are inoculated by spraying a spore suspension on the lower leaf surface. The leaf discs are incubated in a climate cabinet at 22° C. with 18 hour day and 70% relative humidity. The activity of a compound is assessed as percent disease control compared to untreated when an appropriate level of disease damage appears in untreated check leaf disks (12 days after application). The following compounds at 100 ppm in the applied formulation give at least 80% disease control in this test when compared to untreated control leaf discs under the same conditions, which show extensive disease development.

[3] = test system: Puccinia recondita f. Sp. Tritici; assay: Fungicidal activity against Puccinia recondita f. sp. tritici / wheat / leaf disc preventative (brown rust); type: in vivo; conditions: foliar, 200 ppm in the applied formulation, wheat leaf segments cv. Kanzler, preventative (inoculated 1 day after application), assessed 7 to 9 days after application, compared to untreated, read-out: disease control
Experimental: Leaf disks or leaf segments of various plant species are cut from plants grown in a greenhouse. The cut leaf disks or segments are placed in multiwell plates (24-well format) onto water agar. The leaf disks are sprayed with a test solution before (preventative) or after (curative) inoculation. Compounds to be tested are prepared as DMSO solutions (max. 10 mg/ml) which are diluted to the appropriate concentration with 0.025% Tween20 just before spraying. The inoculated leaf disks or segments are incubated under defined conditions (temperature, relative humidity, light, etc.) according to the respective test system. A single evaluation of disease level is carried out 3 to 14 days after inoculation, depending on the pathosystem. Percent disease control relative to the untreated check leaf disks or segments is then calculated. Example 1: Fungicidal Activity Against Puccinia recondita f. Sp. Tritici/Wheat/Leaf Disc Preventative (Brown Rust) Wheat leaf segments cv. Kanzler were placed on agar in multiwell plates (24-well format) and sprayed with the formulated test compound diluted in water. The leaf disks were inoculated with a spore suspension of the fungus 1 day after application. The inoculated leaf segments were incubated at 19° C. and 75% relative humidity (rh) under a light regime of 12 hours light/12 hours darkness in a climate cabinet and the activity of a compound was assessed as percent disease control compared to untreated when an appropriate level of disease damage appears in untreated check leaf segments (7 to 9 days after application). The following compounds at 200 ppm in the applied formulation give at least 80% disease control in this test when compared to untreated control leaf disks under the same conditions, which show extensive disease development.

CCOCC1(NC(=O)c2ccc(-c3noc(C(F)(F)F)n3)c(F)c2)CC1 [Compound 1.40, N-[1-(ethoxy-methyl)cyclopropyl]-3-fluoro-4-[5-(trifluoromethyl)-1,2,4-oxadiazol-3-yl]benzamide]
≥ 80%: pest or weed control at 200 ppm (Phakopsora pachyrhizi) | inhibition of growth at 20 ppm [1] | pest or weed control at 200 ppm [2] | pest or weed control at 100 ppm (Uromyces viciae-fabael) | pest or weed control at 200 ppm [3]

O=C(NCc1ccco1)c1ccc(-c2noc(C(F)(F)F)n2)c(F)c1 [Compound 1.31, 3-fluoro-N-(2-furylmethyl)-4-[5-(trifluoromethyl)-1,2,4-oxadiazol-3-yl]benzamide]
≥ 80%: pest or weed control at 200 ppm (Phakopsora pachyrhizi) | inhibition of growth at 20 ppm [1] | pest or weed control at 200 ppm [2] | pest or weed control at 100 ppm (Uromyces viciae-fabael) | pest or weed control at 200 ppm [3]

O=C(NCCc1cccs1)c1ccc(-c2noc(C(F)(F)F)n2)c(F)c1 [Compound 1.35, 3-fluoro-N-[2-(2-thienyl)ethyl]-4-[5-(trifluoromethyl)-1,2,4-oxadiazol-3-yl]benzamide]
≥ 80%: pest or weed control at 200 ppm (Phakopsora pachyrhizi) | inhibition of growth at 20 ppm [1] | pest or weed control at 200 ppm [2] | pest or weed control at 100 ppm (Uromyces viciae-fabael) | pest or weed control at 200 ppm [3]

O=C(NC1CCC1)c1ccc(-c2noc(C(F)(F)F)n2)c(F)c1 [Compound 1.39, N-cyclobutyl-3-fluoro-4-[5-(trifluoromethyl)-1,2,4-oxadiazol-3-yl]benzamide]
≥ 80%: pest or weed control at 200 ppm (Phakopsora pachyrhizi) | inhibition of growth at 20 ppm [1] | pest or weed control at 200 ppm [2] | pest or weed control at 100 ppm (Uromyces viciae-fabael) | pest or weed control at 200 ppm [3]

COCCN(Cc1ccccc1)C(=O)c1ccc(-c2noc(C(F)(F)F)n2)c(F)c1 [Compound 1.16, N-benzyl-3-fluoro-N-(2-methoxyethyl)-4-[5-(trifluoromethyl)-1,2,4-oxadiazol-3-yl]benzamide]
≥ 80%: pest or weed control at 200 ppm (Phakopsora pachyrhizi) | inhibition of growth at 20 ppm [1] | pest or weed control at 200 ppm [2] | pest or weed control at 100 ppm (Uromyces viciae-fabael) | pest or weed control at 200 ppm [3]

CCCN(CC1CC1)C(=O)c1ccc(-c2noc(C(F)(F)F)n2)c(F)c1 [Compound 1.41, N-(cyclopropyl-methyl)-3-fluoro-N-propyl-4-[5-(trifluoromethyl)-1,2,4-oxadiazol-3-yl]benzamide]
≥ 80%: pest or weed control at 200 ppm (Phakopsora pachyrhizi) | inhibition of growth at 20 ppm [1] | pest or weed control at 200 ppm [2] | pest or weed control at 100 ppm (Uromyces viciae-fabael)

O=C(NC1(C2CC2)CC1)c1ccc(-c2noc(C(F)(F)F)n2)c(F)c1 [Compound 1.27, N-(1-cyclopropyl-cyclopropyl)-3-fluoro-4-[5-(trifluoromethyl)-1,2,4-oxadiazol-3-yl]benzamide]
≥ 80%: pest or weed control at 200 ppm (Phakopsora pachyrhizi) | inhibition of growth at 20 ppm [1] | pest or weed control at 200 ppm [2] | pest or weed control at 100 ppm (Uromyces viciae-fabael) | pest or weed control at 200 ppm [3]

COC(CN(C)C(=O)c1ccc(-c2noc(C(F)(F)F)n2)c(F)c1)OC [Compound 1.36, N-(2,2-dimethoxyethyl)-3-fluoro-N-methyl-4-[5-(trifluoromethyl)-1,2,4-oxadiazol-3-yl]benzamide]
≥ 80%: pest or weed control at 200 ppm (Phakopsora pachyrhizi) | inhibition of growth at 20 ppm [1] | pest or weed control at 200 ppm [2] | pest or weed control at 100 ppm (Uromyces viciae-fabael) | pest or weed control at 200 ppm [3]

O=C(NCC1CC1)c1ccc(-c2noc(C(F)(F)F)n2)c(F)c1 [Compound 1.20, N-(cyclo-propylmethyl)-3-fluoro-4-[5-(trifluoromethyl)-1,2,4-oxadiazol-3-yl]benzamide]
≥ 80%: pest or weed control at 200 ppm (Phakopsora pachyrhizi) | inhibition of growth at 20 ppm [1] | pest or weed control at 200 ppm [2] | pest or weed control at 200 ppm [3]

O=C(NCC1CCOC1)c1ccc(-c2noc(C(F)(F)F)n2)c(F)c1 (centres unmarked) [Compound 1.14, 3-fluoro-N-(tetrahydrofuran-3-ylmethyl)-4-[5-(trifluoromethyl)-1,2,4-oxadiazol-3-yl]benzamide]
≥ 80%: pest or weed control at 200 ppm (Phakopsora pachyrhizi) | inhibition of growth at 20 ppm [1] | pest or weed control at 200 ppm [2] | pest or weed control at 100 ppm (Uromyces viciae-fabael) | pest or weed control at 200 ppm [3]

O=C(NCC1COCCO1)c1ccc(-c2noc(C(F)(F)F)n2)c(F)c1 (centres unmarked) [Compound 1.12, N-(1,4-dioxan-2-ylmethyl)-3-fluoro-4-[5-(trifluoromethyl)-1,2,4-oxadiazol-3-yl]benzamide]
≥ 80%: pest or weed control at 200 ppm (Phakopsora pachyrhizi) | inhibition of growth at 20 ppm [1] | pest or weed control at 200 ppm [2] | pest or weed control at 100 ppm (Uromyces viciae-fabael) | pest or weed control at 200 ppm [3]
